How the values were obtained:
Assay type in all cases: biochemical
[1] = system: MMP-2 or 9; assay: BIOMOL colorimetric assay kit screen of botanical extracts, MMP-2 or 9 proteolytic activity; conditions: first round screening; relative to Doxycycline
Text: (§1) In excess of 80 botanical extracts (BE), were screened in vitro for inhibition against MMP-2, 8, & 9 proteolytic activity. […] Individual calorimetric assay kits (BIOMOL) were used according to the manufacturer's instructions to measure the proteolytic activity of MMP's-2, 8, and 9 in the presence or absence of individual extracts and define mixtures of extracts. The known MMP-inhibitor, Doxycycline was used as an internal standard for comparison of inhibiting activity. The following final concentrations of individual ingredients are combined (along with additional confirmatory test of the “neat” ingredients). Again all tests include a “gold standard” positive control (Doxycycline). The purpose of this interference testing is to see whether combined ingredients result in different levels of inhibition for all three MMP's (2, 8, 9) than found for individual ingredients. All samples are dissolved or extracted in water where practical and otherwise specified.

[2] = target: T1, MMP-8 (Homo sapiens, UniProt P22894); assay: BIOMOL colorimetric assay kit screen of botanical extracts, MMP-8 proteolytic activity; conditions: first round screening; relative to Doxycycline
T1 construct: purchased BIOMOL
T1 sequence (P22894 100-262 limits assumed): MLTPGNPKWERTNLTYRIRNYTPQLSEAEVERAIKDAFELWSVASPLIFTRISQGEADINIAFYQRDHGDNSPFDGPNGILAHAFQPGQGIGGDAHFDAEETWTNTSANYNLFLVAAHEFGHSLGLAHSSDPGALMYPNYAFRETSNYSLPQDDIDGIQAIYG
Text: as §1

[3] = target: T2, Recombinant MMP-2 (Homo sapiens, UniProt P08253); assay: MMP-2 enzyme assay with DQ gelatin fluorescent substrate; conditions: 22° C., EAB pH 7.0, soluble phase of extracts
T2 construct: made in house
T2 sequence (P08253 110-660): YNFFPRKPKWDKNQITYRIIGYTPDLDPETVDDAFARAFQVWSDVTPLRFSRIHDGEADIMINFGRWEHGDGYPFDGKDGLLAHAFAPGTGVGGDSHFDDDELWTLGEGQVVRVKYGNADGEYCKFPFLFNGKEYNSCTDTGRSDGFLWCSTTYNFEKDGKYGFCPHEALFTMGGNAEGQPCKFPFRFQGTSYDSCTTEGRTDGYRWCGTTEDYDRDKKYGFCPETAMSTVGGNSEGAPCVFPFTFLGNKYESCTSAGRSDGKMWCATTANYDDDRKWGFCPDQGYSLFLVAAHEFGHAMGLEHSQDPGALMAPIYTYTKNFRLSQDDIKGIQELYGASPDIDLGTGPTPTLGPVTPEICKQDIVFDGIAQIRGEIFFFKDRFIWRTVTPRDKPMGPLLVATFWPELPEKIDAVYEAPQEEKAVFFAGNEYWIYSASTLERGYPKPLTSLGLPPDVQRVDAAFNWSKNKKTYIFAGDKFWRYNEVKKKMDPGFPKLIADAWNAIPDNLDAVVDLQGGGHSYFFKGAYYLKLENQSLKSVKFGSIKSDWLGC
Experimental: (§2) From the studies of repeated activity and lack of interference, we were able to identify three lead ingredients for further development (A, C, D; A & B were two forms of the same dried extract). These were tested in a second laboratory, using a more sensitive in vitro (non-cellular) assay system, again for individual activity and interference/synergy among MMP-inhibitors and the IL-1-inhibitor against all three forms of MMP. These assays used enzyme kinetic dose curves to determine the IC50 of each extract, Doxycyclin, and combinations of extracts (including the IL-1-inhibitor, e.g., Rosehips).
MMP-2 and MMP-9: Recombinant MMP-2 and MMP-9 were expressed as recombinant proteins and purified in constitutively active forms.
DQ gelatin: A highly labeled porcine gelatin substrate (Molecular Probes, Eugine, Oreg.) was used for the enzyme assays with MMP-2 and MMP-9. The substrate degradation was measured with λex at 494 nm and λem at 515 nm
To reduce any self-degradation of the gelatin substrate, all assays were performed at 22° C. The enzyme assay buffer (EAB) used for MMP-2, MMP-9, and MMP-8 was 50 mM Tris, pH 7.0, 200 mM NaCl, 5 mM CaCl2, 1 μM ZnCl2, 0.05% Brij 35. Assays were performed under conditions where the substrates were not rate limiting. […]

[4] = target: T3, MMP-8 (purified human neutrophil collagenase) (Homo sapiens, UniProt P22894); assay: MMP-8 enzyme assay with fluorescent peptide substrate; conditions: APMA-activated MMP-8, 22° C., EAB pH 7.0
T3 construct: purchased EMD Biosciences/Calbiochem 444229
T3 sequence (P22894 101-467): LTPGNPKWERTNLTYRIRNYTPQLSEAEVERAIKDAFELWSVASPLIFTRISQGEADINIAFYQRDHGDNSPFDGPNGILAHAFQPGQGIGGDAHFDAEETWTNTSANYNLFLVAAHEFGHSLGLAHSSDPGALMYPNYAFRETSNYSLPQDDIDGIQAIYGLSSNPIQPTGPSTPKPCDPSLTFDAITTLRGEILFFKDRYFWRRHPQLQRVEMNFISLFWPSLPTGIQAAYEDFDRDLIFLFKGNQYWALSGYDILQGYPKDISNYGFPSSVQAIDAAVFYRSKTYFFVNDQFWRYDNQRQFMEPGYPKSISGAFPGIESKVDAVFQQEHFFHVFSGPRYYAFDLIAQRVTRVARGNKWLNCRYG
Experimental: as §2
MMP-8: Purified human neutrophil collagenase was purchased from EMD
Biosciences/Calbiochem, cat # 444229. Activation of MMP-8 was required for the experiments and was performed using aminophenylmercuric acetate (APMA) for 2 h at 37° C.
Peptide substrate: The fluorescent peptide substrate Mca-Pro-Leu-Gly-Leu-Dnp-Ala-Arg-NH2 was for measuring the MMP-8 activities (Peptides International, Louisville, Ky.). The Mca is a fluorescent group and Dnp is a quencher. When the cleavage occurs, a strong fluorescent signal is released and can be measured with λex at 328 nm and λem at 393 nm.
To reduce any self-degradation of the gelatin substrate, all assays were performed at 22° C. […]

IC50 for MMP-2 [3] [µg/mL] | IC50 for MMP-8 [4] [µg/mL] | Compound | Inhib. Relative to Doxy. (Fold = % inhib X/% inhib Dox), MMP-2 or 9 [1] [Fold] | Inhib. Relative to Doxy. (Fold = % inhib X/% inhib Dox), MMP-8 [2] [Fold]
– | – | O=c1c(O)c(-c2ccc(O)c(O)c2)oc2cc(O)cc(O)c12 [E) Quercetin, Quercetin] | 1.56 | 0.82
32 | 35 | C[C@H]1c2cccc(O)c2C(O)=C2C(=O)[C@]3(O)C(O)=C(C(N)=O)C(=O)[C@@H](N(C)C)[C@@H]3[C@@H](O)[C@@H]21 [DOX, Doxycycline] | – | –
